Results taken from paper PMC8318231, “Rate-of-Kill (RoK) assays to triage large compound sets for Chagas disease drug discovery: Application to GSK Chagas Box” (PLoS Neglected Tropical Diseases, 2021).

How the values were obtained:
TcCYP51 = settings: formerly reported; cited from earlier work
[1] = test system: T. cruzi intracellular amastigotes in H9c2 cells; test: Rate-of-Kill (RoK) high-content imaging assay, amastigotes per cell (AM/CELL) and curve descriptors; format: cell-based, Trypanosoma cruzi; design: key to ME_24h / ME_48h / ME_72h: % reduction in parasite burden (cidal response); t50pct_MCC50 / t50pct_Cmax: unit not given here; settings: for ME_24h: 24h; for ME_48h: 48h; for ME_72h: 72h; for ME_24h (%): maximum effect at 24 h; for ME_24h (%) / ME_48h (%) / ME_72h (%): RoK assay; for ME_48h (%): maximum effect at 48 h; for ME_72h (%): maximum effect at 72 h; for ME 24h (maximum effect at 24 hours, intracellular amastigotes): maximum percentage of parasite burden reduction reached by any concentration
Summary of the method: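 Readouts at each time point are amastigotes per cell and host nuclei count (cytotoxicity), from DRAQ5 high-content imaging. Infection: trypomastigotes on H9c2 at MOI 8 for 18 h. Dosing was 5 μM single point or 11 points, 1/3 steps from 50 μM. Effect scaled between 4 h infected and uninfected controls.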

[2] = test system: T. cruzi Tulahuen trypomastigotes; test: T. cruzi trypomastigote assay (Cell Titer-Glo viability, ATP luminescence); format: cell-based, Trypanosoma cruzi; settings: for Trypomastigotes pIC50 48 hours: 48 hours incubation; for Trypomastigotes pIC50 48 hours / Trypomastigotes pIC50 72 hours: pIC50 = -log10 IC50 in molar units; for Trypomastigotes pIC50 72 hours: 72 hours incubation; for 72 pIC50 (trypomastigotes, raw data of Fig 1D): 72 hours, plotted values, censored values given without sign; for 48 pIC50 / 72 pIC50: trypomastigote assay; for 48 pIC50: 48 h; for 72 pIC50: 72 h
Summary of the method: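 Compounds were tested in dose response or once at a final 5 μM against 5 × 10^4 trypomastigotes per well (DMEM, 2% FBS), collected on days 5–8 from LLC-MK2 infected cultures. ATP luminescence via CellTiter-Glo reports live parasites; DMSO defines 0% and cell-free wells 100% effect.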

SMILES	CYP51 pIC50 (TcCYP51)	ME_24h ([1]; figure 5)	ME_48h ([1]; figure 5)	ME_72h ([1]; figure 5)	MCCE ([1]; RoK curve descriptor)	tlag_Cmax ([1]; at Cmax)	t50pct_Cmax ([1]; at Cmax, figure 5)	tlag_Cmax ([1]; at Cmax, figure 5)	t50pct_MCC50 ([1]; at MCC50, figure 5)	tlag_MCC50 ([1]; at MCC50, figure 5)	MCCE ([1]; figure 5)	ME_24h (%) [1]	ME_48h (%) [1]	ME_72h (%) [1]	ME 24h (maximum effect at 24 hours, intracellular amastigotes) [1]	Trypomastigotes pIC50 48 hours [2]	Trypomastigotes pIC50 72 hours [2]	AM/CELL NORM ([1]; Time 4, sheet figure 4 A)	AM/CELL NORM ([1]; Time 24, sheet figure 4 A)	AM/CELL NORM ([1]; Time 48, sheet figure 4 A)	further results
CN(C)Cc1ccc(N2CCC(NS(=O)(=O)c3ccc(Cl)cc3)CC2)cc1 [TCMDC-143623]	< 4	-87.7558	-504.665	-765.031	1.0 µM	38.0 h	60	38	72	48	1.029	-87.8%	-504.7%	-765.0%	25.2228%	4.5	4.4	–	–	–	ME (maximum effect) in RoK assay (in words) [1]: positive ME throughout all times; cidality in the RoK assay (in words) [1]: cidal; tlag (in words) [1]: short tlag times; MCC50 ([1]; RoK curve descriptor): 1.9 µM; AM/CELL NORM ([1]; Time 4, figure 4 A): -0.7307; AM/CELL NORM ([1]; Time 24, figure 4 A): -44.6697; AM/CELL NORM ([1]; Time 48, figure 4 A): 60.0074; AM/CELL NORM ([1]; Time 72, figure 4 A): 92.6225; t50%_Cmax ([1]; at Cmax): 60.0 h; t50%_MCC50 ([1]; at MCC50): 72.0 h; tlag_MCC50 ([1]; at MCC50): 24.0 h; MCC50 ([1]; figure 5, in µM): 25.9259; activity in trypomastigotes assay (in words) ([2]; 48 and 72 hours): poorly active
O=c1[nH]ccc2ccc(-c3ccncc3)cc12 [TCMDC-143631]	7.8	-43.2523	-170.763	18.409	0.6 µM	48.0 h	72	48	72	72	0.6173	-43.3%	-170.8%	18.4%	-43.2523%	< 4.3	< 4.3	-16.1027	-43.2523	-202.655	AM/CELL NORM ([1]; Time 72, sheet figure 4 A): 18.409; MCC50 ([1]; figure 5): 50 µM; 72 pIC50 (trypomastigotes, raw data of Fig 1D) [2]: < 4.3; 48 pIC50 ([2]; figure 1A): < 4.3; 72 pIC50 ([2]; figure 1A): < 4.3; 72 pIC50 ([2]; figure 1B): < 4.3
O=C(O)/C=C\C(=O)O.O=C(c1ccc(OCCCc2cnc[nH]2)cc1)C1CC1 [TCMDC-143632]	7.3	-9.2427	8.208	46.1088	5.6 µM	24.0 h	72	24	72	72	5.556	-9.2%	8.2%	46.1%	-9.2427%	< 4.3	< 4.3	10.5519	-53.2211	-4.213	AM/CELL NORM ([1]; Time 72, sheet figure 4 A): 38.8877; MCC50 ([1]; figure 5): 50 µM; 72 pIC50 (trypomastigotes, raw data of Fig 1D) [2]: < 4.3; 48 pIC50 ([2]; figure 1A): < 4.3; 72 pIC50 ([2]; figure 1A): < 4.3; 72 pIC50 ([2]; figure 1B): < 4.3
